Data from ChEMBL document CHEMBL5335791, “Antiparasitic activity of ivermectin: Four decades of research into a "wonder drug"” (Eur J Med Chem, 2023).

Tests used:
Leishmania infantum = assay: Antileishmanial activity against promastigote form of Leishmania infantum infected in BALB/c mouse assessed as reduction in parasite growth at 2.5 mg/kg, po administered once for every two days for 10 days; type: functional, organism-based
[1] = (§1) Cytotoxicity against BALB/c mouse macrophage assessed as cell viability measured after 48 hrs by MTT assay; type: toxicity, cell-based; conditions: BALB/c, mouse macrophages
[2] = Selectivity index, ratio of CC50 for cytotoxicity against BALB/c mouse macrophages to IC50 for antileishmanial activity against promastigote form of Leishmania infantum infected in BALB/c mouse; type: toxicity
Trypanosoma cruzi [3] = assay: Antitrypanosomal activity against Trypanosoma cruzi Y strain amastigotes; type: functional, organism-based
Trypanosoma cruzi [4] = assay: Antitrypanosomal activity against Trypanosoma cruzi Y strain trypomastigotes; type: functional, organism-based
Trypanosoma cruzi [5] = assay: Antitrypanosomal activity against Trypanosoma cruzi Y strain intracellular epimastigotes assessed as viability of intracellular epimastigote measured after 5 days; type: functional, organism-based
[6] = Acute toxicity in Beagle dog assessed as lethal dose; design: species or system Canis lupus familiaris; conditions: in vivo
[7] = Toxicity in mouse assessed as lethal dose; conditions: in vivo
Macrophage = assay: as §1; type: toxicity, cell-based; conditions: macrophage, 48 h
Trypanosoma evansi = assay: Antitrypanosomal activity against Trypanosoma evansi; type: functional, organism-based

| Compound | IC50 (Leishmania infantum; Leishmania infantum) [µM] | CC50 at 48 h [1] [µM] | selectivity ratio ([2]; BALB/c, mouse macrophages, read-out: Ratio CC50/IC50) | EC50 (Trypanosoma cruzi [3]) [µM] | EC50 (Trypanosoma cruzi [4]) [µM] | EC50 (Trypanosoma cruzi [5]) [µM] | LD50 [6] [mg/kg] | LD50 [7] [mg/kg] | IC50 (Leishmania infantum) [µM] | CC50 (Macrophage) [µM] | Ratio CC50/IC50 [2] | IC50 (Trypanosoma evansi) [µM] |
| --- | --- | --- | --- | --- | --- | --- | --- | --- | --- | --- | --- | --- |
| C[C@@H]1[C@H](O)[C@@H](C)/C=C/C=C/C=C/C=C/C=C/C=C/C=C/[C@H](O[C@@H]2O[C@H](C)[C@@H](O)[C@H](N)[C@@H]2O)C[C@@H]2O[C@](O)(C[C@@H](O)C[C@@H](O)[C@H](O)CC[C@@H](O)C[C@@H](O)CC(=O)O[C@H]1C)C[C@H](O)[C@H]2C(=O)O [AMPHOTERICIN B] | 0.12 | 1.06 | ~9 |  |  |  |  |  |  |  |  |  |
| IVERMECTIN |  |  |  | 0.3 | 12.5 | 5.3 | 80 | 0.2 | 3.64 | 428 | 117 | 13.8 |
